Reference: PubChem BioAssay (NCI)
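Assay format: 96-well plates, 48-hour exposure. Definition used: TGI = concentration required for complete inhibition of growth.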

How the values were obtained:
Assay in all cases: NCI tumour cell line growth inhibition, 48 h
SF-295 CNS = tested on: SF-295 CNS
A498 renal = tested on: A498 renal
SW-620 colon = tested on: SW-620 colon
UACC-257 melanoma = tested on: UACC-257 melanoma

SMILES | TGI (SF-295 CNS) [µM] | TGI (A498 renal) [µM] | TGI (SW-620 colon) [µM] | TGI (UACC-257 melanoma) [µM]
COC(=O)/C=C(/C(=O)OC)c1cc2ccc3c([nH]c4ccccc43)c(C)c-2c1 | 16.4 | 23.5 | 27.1 | 28.2
COc1ccc(P2(=S)SP(=S)(c3ccc(Cl)cc3)S2)cc1 (stereo not given) | > 100 | > 100 | > 100 | > 100
Nn1c(CCCCCCCCc2nnc(COc3ccccc3)n2N)nnc1COc1ccccc1 | > 100 | > 100 | > 100 | > 100
Cc1nc2c(cc1C(=O)N/N=C/c1ccc([N+](=O)[O-])cc1)c(=O)n(C)c(=O)n2C | > 100 |  | > 100 | > 100
Cc1cc(C)c2c(c1)C1=NCCN1C2(O)c1ccc(Cl)cc1 (stereo not given) | 31.4 | 28.6 | 29.2 | 31.9
COC(=O)c1c2c(cc3c1CC1(C3)Cc3cc4c(c(C(C)=O)c3C1)CCC4)C=CC2 (stereo not given) | > 31.6 | > 31.6 |  | > 31.6
COc1cc2c(cc1OC)CN1CCCc3cc(OC)c(OC)cc3C1C2 (stereo not given) | > 100 |  | > 100 | > 100
C=CCc1cc(C=C(C#N)C#N)cc(OC)c1O | > 100 | > 100 | > 100 | > 100
CCOC(=O)NC(C(=O)OCC)(N1CCN(c2cc3c(cc2F)c(=O)c(C(=O)O)cn3CC)CC1)C(F)(F)F (stereo not given) | > 100 | > 100 | > 100 | > 100
COc1ccc(-c2nnc3n(Cc4ccccc4)c4ccccc4n3c2=O)cc1 | 41.8 | 99.6 | > 100 | > 100
COc1ccc(/C=C/C(=N/NC(=O)N/N=C(/C=C/c2ccc(OC)cc2)C(C)(C)CN2CCCCC2)C(C)(C)CN2CCCCC2)cc1 | 3.45 | 3.73 | 4.48 | 3.31
Cc1cc(S(=O)(=O)NC2=NC(c3ccccc3)c3cc(Cl)ccc3N2)c(S)cc1Cl (stereo not given) | > 100 | > 100 | > 100 | > 100
COC(=O)[C@@]1(Cc2ccc(O)cc2)C[C@@H]2Cc3ccccc3N2N1 | > 100 | 97.3 | > 100 | 71.7
NC(=O)C(=CNC(=S)Nc1ccc(Cl)c(Cl)c1)C(N)=O | > 100 | > 100 | > 100 | > 100
O=C(OC[C@H]1C[C@H]2C(=O)CCC[C@H]2O1)c1ccccc1 | > 100 | > 100 | > 100 | > 100
OC(c1cc2ccccc2[nH]1)C1(c2cccnc2)SCCCS1 (stereo not given) | > 100 | > 100 | > 100 | > 100
C[n+]1c2ccccc2n2c3ccccc3c(NCCc3ccccn3)c(C#N)c21 | 15.9 | 14 | 3.24 | 16.6
CCOC(=O)/C(N=Nc1ccc(-n2c(C)nc3ccc(Br)cc3c2=O)cc1)=C(/C)O | > 100 | > 100 | > 100 | > 100

SMILES | TGI (SF-295 CNS) [µM] | TGI (A498 renal) [µM] | TGI (SW-620 colon) [µM] | TGI (UACC-257 melanoma) [µM]
c1ccc(-c2nnc(SCc3c[nH]c4ccccc34)n2-c2ccccc2)cc1 | > 100 | 56 | > 100 | > 100
N#CCOc1ccc(/C=C/C(=O)c2ccc(Cl)cc2)cc1 | 53.9 | 49.5 | 70.4 | > 100
CC(C)COC(=O)OC(=O)c1ccc(N(C)Cc2cnc3nc(N)nc(N)c3n2)cc1 | > 100 | > 100 | > 100 | > 100
Cc1ccc(N=C2S/C(=C3/CCC=C3N3CCOCC3)N(c3ccc(Cl)cc3)C2=Nc2ccc(C)cc2)cc1 |  | > 100 | > 100 | > 100
CO/C(=C/C(=O)C(Cl)(Cl)Cl)CC/C(=C\C(=O)C(Cl)(Cl)Cl)OC | > 100 | > 100 | > 100 | 43.8
O=C(NNCC(F)(F)F)c1ccncc1 | > 100 | > 100 | > 100 | > 100
CCOC(=O)C1C(c2ccc(O)c(OC)c2)c2c([nH][nH]c2=O)CC1(C)O (stereo not given) | > 100 | > 100 | > 100 | > 100
COc1c2c(cc3c1OCO3)C13C=CC(OC)CC1N(CC3)C2 (stereo not given) | > 100 | > 100 | > 100 | > 100
Cc1ccc(C2N=C(N)NC3=C2CCOc2c3ccc3ccccc23)cc1 (stereo not given) | 62.2 | 41 | > 100 | > 65.7
O=[N+]1ON=C(c2ccccc2)C1=C1C(c2c(-c3ccccc3)no[n+]2[O-])=NON1[O-] | > 100 | 43.7 | > 100 | 67.3
NNC1=N/C(=C\c2ccco2)C(=O)N1 | > 100 | > 100 | > 100 | > 100
CC1(C)OCC(C2OC(OC(=O)c3ccc([N+](=O)[O-])cc3)C3OC(C)(C)OC23)O1 (stereo not given) | > 100 | > 100 | > 100 | > 100
O=C(COc1ccc(OCC(=O)NNC2=NC(c3cc(F)c(Cl)cc3Cl)CS2)c(Cl)c1)NNC1=NC(c2cc(F)c(Cl)cc2Cl)CS1 (stereo not given) | 71.6 | 56.2 | > 100 | > 100
COC1=CC(=O)c2c(cc(COP(=O)(OCC3OC(n4cc(F)c(=O)[nH]c4=O)CC3O)N(C)CCCCCl)n2C)C1=O (stereo not given) | 1.36 |  | > 59.9 | > 47.5
Cn1cc(S(=O)(=O)NC(=O)Nc2ccc(Cl)cc2)c2ccccc21 | > 100 | > 100 | > 100 | > 100
O=c1cc(N2CCCC2)[nH]c(=O)n1-c1ccc(F)cc1 | > 100 | > 100 | > 100 | > 100
S=C(N/N=C/c1ccccn1)Nc1ccc(Cl)cc1 | > 91.7 | 59.9 | > 100 | > 100
